Data on nine molecules can be found in paper PMC11434067, “Bioassay-Guided Isolation and Identification of Xanthine Oxidase Inhibitory Constituents from the Fruits of Chaenomeles speciosa (Sweet) Nakai” (Molecules, 2024).

Like-named read-outs stand apart in the source and are kept apart here.

The target of assay [1] is T1, XO (Bos taurus, UniProt P80457). Put plainly: In vitro xanthine oxidase inhibition assay (uric acid formation, absorbance at 290 nm). In kind it is biochemical.
Assay [2] deals with T1, XO. The settings on record: cited from earlier work.

T1 sequence (P80457 whole entry): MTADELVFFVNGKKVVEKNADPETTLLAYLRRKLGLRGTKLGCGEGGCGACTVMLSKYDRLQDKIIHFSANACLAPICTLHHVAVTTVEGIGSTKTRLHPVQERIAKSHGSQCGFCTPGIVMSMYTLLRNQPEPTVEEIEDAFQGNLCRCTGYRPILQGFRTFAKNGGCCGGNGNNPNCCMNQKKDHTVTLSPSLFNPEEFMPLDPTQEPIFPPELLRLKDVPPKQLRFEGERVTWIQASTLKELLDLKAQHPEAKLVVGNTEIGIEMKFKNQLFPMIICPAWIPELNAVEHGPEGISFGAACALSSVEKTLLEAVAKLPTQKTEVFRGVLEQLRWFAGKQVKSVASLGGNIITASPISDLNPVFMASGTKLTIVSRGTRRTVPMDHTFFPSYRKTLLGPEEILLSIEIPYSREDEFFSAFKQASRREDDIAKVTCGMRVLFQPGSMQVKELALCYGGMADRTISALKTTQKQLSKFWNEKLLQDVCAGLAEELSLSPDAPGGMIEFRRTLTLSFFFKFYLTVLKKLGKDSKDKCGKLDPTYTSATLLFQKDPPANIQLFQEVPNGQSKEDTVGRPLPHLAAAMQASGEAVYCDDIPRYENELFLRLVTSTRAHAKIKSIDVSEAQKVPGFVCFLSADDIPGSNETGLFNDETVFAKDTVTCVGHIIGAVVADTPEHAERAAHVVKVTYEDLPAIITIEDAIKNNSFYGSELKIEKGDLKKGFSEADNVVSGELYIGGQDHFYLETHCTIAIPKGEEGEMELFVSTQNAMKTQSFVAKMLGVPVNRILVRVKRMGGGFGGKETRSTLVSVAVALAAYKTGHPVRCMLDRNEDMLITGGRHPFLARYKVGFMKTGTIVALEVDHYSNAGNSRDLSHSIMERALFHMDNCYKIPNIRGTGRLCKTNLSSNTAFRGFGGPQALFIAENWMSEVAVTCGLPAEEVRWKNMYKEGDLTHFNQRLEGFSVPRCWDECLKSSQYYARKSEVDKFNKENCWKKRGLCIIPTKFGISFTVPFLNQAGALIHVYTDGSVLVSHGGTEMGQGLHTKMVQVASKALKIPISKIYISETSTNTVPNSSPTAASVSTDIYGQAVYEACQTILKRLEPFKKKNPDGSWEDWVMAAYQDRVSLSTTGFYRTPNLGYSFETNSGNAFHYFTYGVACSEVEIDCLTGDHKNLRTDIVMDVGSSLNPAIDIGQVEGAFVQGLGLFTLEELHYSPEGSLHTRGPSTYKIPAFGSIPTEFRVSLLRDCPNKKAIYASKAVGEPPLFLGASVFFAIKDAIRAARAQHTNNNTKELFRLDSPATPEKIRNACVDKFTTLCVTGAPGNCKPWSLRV

In the case of `O=C(/C=C/c1ccc(O)c(O)c1)O[C@@H]1C[C@](O)(C(=O)O)C[C@@H](O)[C@H]1O` [compound 4, chlorogenic acid], 297 µM corresponded to half-maximal inhibition against XO [1] (IC50). The “type of XO inhibition” value is listed as “noncompetitive inhibition” on XO [2] (ref 45) and “non-competitive inhibitory effect” on XO [2] (ref 46).
With `O=C(O)/C=C/c1ccc(O)cc1` [compound 7, p-coumaric acid], half-maximal inhibition at XO [1] (IC50) required 351 µM.
As to `CCCCOC(=O)C1(O)CC(O)C(O)C(OC(=O)C=Cc2ccc(O)c(O)c2)C1` (stereo not drawn) [compound 2, butyl chlorogenate], 399 µM corresponded to half-maximal inhibition against XO [1] (IC50).
On to `O=C(O)/C=C/c1ccc(O)c(O)c1` [compound 6, caffeic acid], for which inhibition on XO [1] was half-maximal at 242 µM (IC50).
On to `COC(=O)[C@]1(O)C[C@@H](O)[C@@H](O)[C@H](OC(=O)/C=C/c2ccc(O)c(O)c2)C1` [compound 1, methyl chlorogenate], for which the IC50 (as a rule, the concentration at which inhibition is half-maximal) against XO [1] is 425 µM.
Still for that read-out and setting: with `COC(=O)C1(O)C[C@@H](O)C(OC(=O)/C=C/c2ccc(O)c(O)c2)[C@H](O)C1` (stereo partly drawn) [compound 5, cryptochlorogenic acid methyl ester] the figure was 600 µM.
On the same count and under the same terms, under `O=C(O)c1ccc(O)c(O)c1` [compound 9, protocatechuic acid] stands 651 µM.
In turn, `O=C(O)c1ccccc1` [compound 8, benzoic acid] had an IC50 against XO [1] of 104 µM. For the same molecule, at XO [1] (concentration lower than 200 µM), the “inhibition of XO at low concentration (in words)” value is listed as “high inhibition”.
In turn, `CCOC(=O)[C@]1(O)C[C@@H](O)[C@@H](O)[C@H](OC(=O)/C=C/c2ccc(O)c(O)c2)C1` [compound 3, ethyl chlorogenate] showed an IC50 at XO [1] of 450 µM.
